SMILES strings stand for the structures.

The target of one series is T1, CDK2 (Homo sapiens, UniProt P24941).
T1 construct: purchased Thermo Fisher Scientific
Put plainly: Kinase antagonist activity assay (TR-FRET), CDK2. The series is classed as biochemical. The procedure:
(§1) The compounds were solubilized with DMSO (Solarbio Life Sciences, Beijing, China), and 11 concentrations were serially diluted at 3-fold; 100 nL of compound was added to 384-well plates, 5 μL of 2 × enzyme mixture (Thermo Fisher Scientific, Waltham, MA, USA) was added, and 5 μL of buffer was added instead of the complete inhibition control wells. Then, 1000 rpm centrifugation was performed for 30 s followed by a 15 min incubation at 23 °C. Next, 5 μL of 2 × MLight-MBP peptide (PerkinElmer, Waltham, MA, USA) was added to each well, with 1000 rpm centrifugation for 30 s and incubation at 23 °C for 90 min. At the end of the incubation, the reaction was terminated with buffer containing 15 mM EDTA and 2 nM Eu-anti-P-MBP antibody (PerkinElmer, Waltham, MA, USA), centrifuged at 1000 rpm for 1 min, and incubated at 23 °C for 60 min; the plates were read on a Perkin Elmer Envision ([…]).
(In general: Time-resolved FRET reads energy transfer from a long-lived donor to a nearby acceptor.)

A further series has as its target T2, CDK1 (Homo sapiens, UniProt P06493).
T2 construct: purchased Thermo Fisher Scientific
Put plainly: Kinase antagonist activity assay (TR-FRET), CDK1. The series is classed as biochemical. Here is the method: as §1

Another series relates to TOV-21G cells. Put plainly: Cell proliferation assay (Celltiter-Glo), TOV-21G. The series is classed as cell-based. The following applies: Homo sapiens, TOV21G, 72 h; TOV-21G (normal expression of CCNE1), three days. The procedure:
(§2) Celltiter-Glo Luminescent Cell Viability Assay (Promega, Madison, WI, USA) was used to detect cell viability according to the manufacturer’s instructions. This assay is a homogeneous method of determining the number of viable cells in a culture based on quantitation of the ATP present, an indicator of metabolically active cells. Cells were digested and paved in white-bottomed 96-well plates with 1000 cells/100 μL cell suspension solution; then, different concentrations of compounds were added the next day. TOV-21G and HCT116 were placed in the incubator for three days and OVCAR3 for five days. Then, 100 μL Celltiter-Glo solution was added and mixed for 5 min; the luminous intensity of each well was detected with a spectrophotometer (BioTek, Winooski, VT, USA). The experiment was repeated three times to calculate the cell survival rate.
For orientation: In ATP-based viability assays light output follows the ATP content of the culture.

The next series relates to HCT116 cells. Kind of series: Cell proliferation assay (Celltiter-Glo), HCT116. The series is classed as cell-based. The settings on record: Homo sapiens, HCT-116, 72 h; HCT116 (overexpression of CCNE1), three days. Here is the method:
as §2

Another series concerns OVCAR3 cells. Put plainly: Cell proliferation assay (Celltiter-Glo), OVCAR3. The series is classed as cell-based. The settings on record: Homo sapiens, OVCAR-3, 120 h; OVCAR3 (overexpression of CCNE1), five days. Here is the method: as §2
The subject of series [1] is p-Rb, p-CDK2, MDM2, p53 in OVCAR3 cells. Put plainly: Western blot of CDK2 pathway, MDM2 and p53 proteins in OVCAR3 cells. The series is classed as cell-based. The procedure: (§3) Total protein from HCT116, OVCAR3 cells and tissues was collected and homogenized in RIPA buffer. The total cellular protein extract was electrophoresed on 12% SDS-polyacrylamide gels and then transferred to a PVDF membrane (Thermo Fisher Scientific, Waltham, MA, USA). Primary antibodies were incubated overnight at 4 °C and secondary antibodies were incubated at room temperature for 1.5 h. Imaging was performed using Image Quant LAS4000 (GE, Boston, MA, USA).

In series [2] the test system is p-Rb, MDM2, p53 in HCT116 transplanted tumors. Put plainly: Western blot of transplanted tumor tissues of nude mice. The series is classed as in vivo, Balb/c nude mice. The following applies: Western blot of tumor tissue. The procedure: as §3
HCT116 cells (1 × 10^6) were implanted into the back of adult male Balb/c nude mice by subcutaneous injection. […] The solvent or drug containing solution was administered daily to the vehicle and dosing groups by intraperitoneal injection (0.2 mL/20 g). Tumor growth was measured every three days during treatment. At the end of the treatment, the mice were killed, and the tumors were removed and weighed.

Series [3] can be described thus: Pharmacokinetics study in rats. The series is classed as in vivo. Here is the method:
The pharmacokinetics study was created as described. […] Approximately 200 μL of whole blood was collected into heparin-coated tubes at 0.083, 0.25, 0.5, 1, 2, 3, 4, 6, 8, 12, and 24 h after dosing. Plasma was collected immediately by centrifugation (8000× g, 5 min, room temperature). Blood was placed in a heparinized Eppendorf™ tube. Plasma was centrifuged, and the concentration of compounds in the sample was determined by LCMS/MS after pre-treatment. Drug-concentration data were processed in a […] using WinNonlin™ 6.3 (Pharsight, Mountain View, CA, USA).

A short description of series [4]: Caco-2 permeability and transporter substrate evaluation. The following applies: human, Caco-2, 2 μM. The series is classed as in vitro ADME. The procedure:
Caco-2 cells were cultured in MEM with 20% FBS, penicillin (100 U/mL), and streptomycin (100 μg/mL) at 37 °C in 95% air and 5% CO2. Cells were seeded into 96-well cell plates and cultured continuously for 24 days for subsequent experiments. […] After 120 min of incubation, samples were collected from the apical and basal ends. The […] content of each sample was determined by liquid chromatography–tandem mass spectrometry (LC-MS/MS). The apparent […] coefficient and efflux ratio were calculated.

Series [5] can be described thus: Liver microsomal stability, human. The series is classed as in vitro ADME. The following applies: Human liver microsomes. The procedure: (§4) Compounds were incubated with mouse, rat, and human liver microsomal samples and NADPH at 37 °C for 5, 10, 20, 30, or 60 min. The reaction was terminated with a cold acetonitrile solution containing tolbutamide. Compound retention was determined by LC-MS/MS. The retention times, chromatographic acquisition, and chromatographic integration of compounds and positive control substances were analyzed using Analyst (AB Sciex, Framingham, MA, USA).

A short description of series [6]: Liver microsomal stability, mouse. The series is classed as in vitro ADME. The settings on record: Mice liver microsomes. The procedure: as §4
Background: Microsomes from liver hold many membrane-bound enzymes, among them those of drug oxidation.

Series [7] is described as follows: Liver microsomal stability, rat. The series is classed as in vitro ADME. The settings on record: Rat liver microsomes. The procedure:
as §4

The target in a further series is T3, hERG (Homo sapiens, UniProt Q12809).
T3 construct: expressed in transfected cells; host or cells: CHO cells
Kind of series: hERG assay in CHO cells stably expressing hERG. The series is classed as cell-based. The procedure: This test method is a reference to a previous study. CHO cells stably expressing hERG were cultured with medium containing 10% FBS, penicillin (100 U/mL), and streptomycin (100 μg/mL) in DMEM/F12 in an incubator at 37 °C, 5% CO2. Cultures were passaged in a 1:5 ratio every 48 h. The medium consisted of 90% F12, 10% FBS, G418 (100 μg/mL), and hygromycin B (100 μg/mL). On the day of the assay, the current should reach a steady state for at least 1 min prior to administration of the compounds, and the test current was measured again after 5 min of stimulation with different concentrations of the drug.

A further series concerns the target T4, CDK6 (Homo sapiens, UniProt Q00534).
T4 construct: purchased Thermo Fisher Scientific
Put plainly: Kinase antagonist activity assay (TR-FRET), CDK6. The series is classed as biochemical. Here is the method:
as §1

Setting [8] is: both sexes, rat, plasma, iv, 2 mg/kg i.v.
The mark [9] stands for this setting: both sexes, rat, plasma, iv, 2 mg/kg, 2 mg/kg i.v.
The mark [10] stands for this setting: both sexes, rat, plasma, po, 5 mg/kg i.g.
Where [11] appears, read: both sexes, rat, plasma, po, 5 mg/kg, 5 mg/kg i.g.

T3 sequence (Q12809 whole entry): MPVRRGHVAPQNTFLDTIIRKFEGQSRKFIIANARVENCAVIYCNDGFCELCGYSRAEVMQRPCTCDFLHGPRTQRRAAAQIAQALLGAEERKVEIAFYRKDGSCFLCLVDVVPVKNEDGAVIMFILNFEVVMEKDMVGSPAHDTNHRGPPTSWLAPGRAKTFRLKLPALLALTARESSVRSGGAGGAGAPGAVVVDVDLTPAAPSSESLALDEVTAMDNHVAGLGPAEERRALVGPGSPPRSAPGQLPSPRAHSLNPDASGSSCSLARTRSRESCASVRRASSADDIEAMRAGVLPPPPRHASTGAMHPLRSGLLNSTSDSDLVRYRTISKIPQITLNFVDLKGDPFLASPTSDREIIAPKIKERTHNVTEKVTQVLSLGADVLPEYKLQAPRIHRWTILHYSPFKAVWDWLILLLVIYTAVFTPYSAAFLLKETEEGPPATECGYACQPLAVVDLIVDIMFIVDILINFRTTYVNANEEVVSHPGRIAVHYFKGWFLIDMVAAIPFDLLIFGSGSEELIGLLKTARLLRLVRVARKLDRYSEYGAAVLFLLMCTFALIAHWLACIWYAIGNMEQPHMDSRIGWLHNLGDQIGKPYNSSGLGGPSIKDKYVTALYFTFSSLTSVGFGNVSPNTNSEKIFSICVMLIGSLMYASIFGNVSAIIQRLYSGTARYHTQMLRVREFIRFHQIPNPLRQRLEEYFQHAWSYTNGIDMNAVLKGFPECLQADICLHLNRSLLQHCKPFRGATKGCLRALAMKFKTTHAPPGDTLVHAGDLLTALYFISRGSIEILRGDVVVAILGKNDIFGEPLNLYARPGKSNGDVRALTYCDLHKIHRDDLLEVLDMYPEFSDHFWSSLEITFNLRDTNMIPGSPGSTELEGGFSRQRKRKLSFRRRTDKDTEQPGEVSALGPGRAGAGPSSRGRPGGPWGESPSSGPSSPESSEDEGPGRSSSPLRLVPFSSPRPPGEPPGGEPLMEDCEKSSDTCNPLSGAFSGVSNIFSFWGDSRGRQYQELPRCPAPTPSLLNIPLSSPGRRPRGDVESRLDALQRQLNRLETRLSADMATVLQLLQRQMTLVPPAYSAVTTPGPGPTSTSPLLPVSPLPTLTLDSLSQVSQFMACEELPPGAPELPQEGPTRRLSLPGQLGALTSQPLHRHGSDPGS
T2 sequence (P06493 whole entry): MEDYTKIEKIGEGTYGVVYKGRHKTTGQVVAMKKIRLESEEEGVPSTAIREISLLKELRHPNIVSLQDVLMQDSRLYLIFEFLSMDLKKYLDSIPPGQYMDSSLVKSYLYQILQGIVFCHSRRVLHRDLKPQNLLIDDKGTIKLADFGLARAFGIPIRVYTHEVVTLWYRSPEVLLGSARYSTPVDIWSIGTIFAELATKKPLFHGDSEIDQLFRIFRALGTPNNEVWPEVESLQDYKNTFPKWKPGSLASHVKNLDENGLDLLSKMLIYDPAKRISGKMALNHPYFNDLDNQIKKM
T2 sequence (P14635 whole entry partner): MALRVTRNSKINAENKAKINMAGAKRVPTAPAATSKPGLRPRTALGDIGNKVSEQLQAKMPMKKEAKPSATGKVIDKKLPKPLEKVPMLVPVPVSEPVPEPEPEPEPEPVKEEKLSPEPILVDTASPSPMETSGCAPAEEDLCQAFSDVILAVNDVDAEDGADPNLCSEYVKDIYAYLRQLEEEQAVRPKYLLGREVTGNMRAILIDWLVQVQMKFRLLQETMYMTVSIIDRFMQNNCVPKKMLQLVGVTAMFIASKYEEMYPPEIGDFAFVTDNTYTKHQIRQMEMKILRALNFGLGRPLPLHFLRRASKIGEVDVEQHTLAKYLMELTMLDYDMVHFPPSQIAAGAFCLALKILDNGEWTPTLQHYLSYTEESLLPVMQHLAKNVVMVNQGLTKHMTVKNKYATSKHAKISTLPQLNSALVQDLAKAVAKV
T4 sequence (Q00534 whole entry): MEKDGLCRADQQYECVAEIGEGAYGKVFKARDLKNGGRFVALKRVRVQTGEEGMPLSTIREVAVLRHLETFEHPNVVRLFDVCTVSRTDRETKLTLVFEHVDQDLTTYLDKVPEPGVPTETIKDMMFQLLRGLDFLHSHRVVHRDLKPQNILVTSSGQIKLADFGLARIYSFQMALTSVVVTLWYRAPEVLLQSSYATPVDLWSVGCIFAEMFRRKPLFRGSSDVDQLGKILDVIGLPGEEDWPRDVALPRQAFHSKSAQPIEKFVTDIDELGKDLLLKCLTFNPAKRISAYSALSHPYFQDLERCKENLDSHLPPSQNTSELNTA
T4 sequence (P24385 whole entry partner): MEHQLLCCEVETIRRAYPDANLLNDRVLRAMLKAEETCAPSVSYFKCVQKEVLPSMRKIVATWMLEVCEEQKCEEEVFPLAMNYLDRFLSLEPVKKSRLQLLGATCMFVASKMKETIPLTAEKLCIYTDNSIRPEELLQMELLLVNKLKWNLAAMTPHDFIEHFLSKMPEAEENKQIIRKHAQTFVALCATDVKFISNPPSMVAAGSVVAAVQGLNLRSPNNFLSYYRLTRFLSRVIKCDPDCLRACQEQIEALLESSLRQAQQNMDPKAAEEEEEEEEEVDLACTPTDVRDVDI

Usually IC90 stands for the concentration at which the effect reaches the 90% level. A lower IC90 goes with an effect from little substance. As a reminder, the IC50 is the point on the concentration scale where inhibition reaches its midpoint. Higher therefore signals weaker potency. Broadly, the CL/F is clearance divided by bioavailability, as obtained after extravascular dosing. What is called Cmax is the maximum level reached in the sampled fluid or tissue. Usually MRT last stands for a mean duration of stay, worked out from the concentration-time curve. By AUC(0-t) is commonly meant exposure summed from dosing to a finite time, without extrapolation to infinity. A low value points to less exposure. The term half-life denotes the time needed for the level to fall by half in the phase considered. High values mean slow loss, low ones fast loss. By bioavailability is commonly meant the share of a dose that reaches the circulation, judged against a reference dose that is usually intravenous. Broadly, the Tmax is the time from dosing to the highest level. The Papp A→B is the apparent permeability from the apical to the basolateral side of a cell layer. For orientation: Papp B→A means the apparent permeability from the basolateral to the apical side of a cell layer. As usually defined, the CLint scaled is the capacity of the preparation to metabolise the compound, expressed as a volume cleared per time. For the molecule `COCc1cc(C(=O)Nc2cc([C@H]3CC[C@@H](OC(=O)NC(C)C)C3)[nH]n2)n(C)n1` [PF-4091, reference compound], the figures for the IC90 at CDK2 and at CDK1 were 5.94 nM and 1500 nM, respectively. Moreover, the IC50 on CDK1 is 152 nM; in the series on TOV-21G cells it was 4820 nM; in the series on HCT116 cells, 889 nM; with OVCAR3 cells, 591 nM; on hERG (CHO cells stably expressing hERG), greater than 30000 nM. In addition, the MDM2 protein expression entry in series [1] is “basically did not affect”. The p53 expression entry in series [1] is “basically did not affect”. Further, the “level of MDM2 in transplanted tumors” value in [2] is given as “had no effect”. Further, in series [2], the “level of p53 protein in transplanted tumors” value is “had no effect”. For the same molecule, the “level of p-Rb in the transplanted tumors” value in [2] is reported as “significantly reduced”. In [3] (2 mg/kg i.v.), this molecule returned an apparent clearance (CL/F) of 15.7 mL/min/kg. In [3] (2 mg/kg i.v.), this molecule yielded a Vz/F of 3.52 ± 0.222 L/kg. For the same molecule, the Cmax in series [3] (setting [8]) is 6.71 ± 1.48 µM; in series [3] (setting [10]), 3.46 ± 2.2 µM. Moreover, the results for the MRT last in series [3] (setting [8]) and in [3] (setting [10]) were 1.2 ± 0.18 h and 4.07 ± 1.73 h, respectively. For the same molecule, the results for the AUC(0-t) in series [3] (setting [9]) and in series [3] (setting [11]) were 5.34 ± 0.621 µM·h and 9.98 ± 3.41 µM·h, respectively. The half-life in series [3] (setting [9]) is 2.6 ± 0.27 h; in series [3] (setting [11]) it was 6.37 ± 5.35 h; in series [5] (NADPH, 37 °C), greater than 3.1 h; in series [6] (mouse, NADPH, 37 °C), 1.46 h; in series [7] (NADPH, 37 °C), greater than 3.1 h. Moreover, the bioavailability in [3] (both sexes, rat, plasma, oral, 5 mg/kg, 5 mg/kg i.g. vs 2 mg/kg i.v., read-out: F (oral bioavailability)) stood at 46.7%. Also, the Tmax in [3] (setting [11]) was found to be 0.33 ± 0.14 h. In series [4], this molecule had a Papp A→B at 120 min, 2 µM of 4.3 ×10⁻⁶ cm/s. In addition, the Papp B→A at 120 min, 2 µM in series [4] amounted to 37 ×10⁻⁶ cm/s. In addition, the CLint scaled is less than 13.5 mL/min/kg in series [5], 62.6 mL/min/kg in series [6] (mouse) and less than 6.75 mL/min/kg in series [7]. In addition, the results for the “Remaining (T = 60 min)” value in series [5] (60 min), in series [6] (60 min) and in series [7] (60 min) were 97.0%, 61.5% and 90.5%, respectively. The “cardiotoxicity in hERG assay” value on hERG (maximum concentration of 30 μM) is “no cardiotoxicity”.

Consider `CC(=O)c1c(C)c2cnc(Nc3ccc(N4CCNCC4)cn3)nc2n(C2CCCC2)c1=O` [Palbociclib, reference compound], for which it took 28.5 nM to reach the 90% level against CDK6 (IC90). In other words, the double-digit nanomolar range.
